Values joined by “and” are separate entries in the source; they are usually repeats but may differ in a detail not shown here. Equal entries are not always repeated. Inconclusive results and toxic doses are left out. How the source made its calls: active means survival T/C of 150% or more; inactive means T/C below 125% in these data.
Tested on: P388 leukemia ip, CD2F1 mice, survival T/C
Assay: NCI In Vivo Anticancer Drug Screen. Data for tumor model P388 Leukemia (intraperitoneal) in CD2F1 (CDF1) mice
Details: endpoint: median survival time, higher = longer survival
Outline: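 Mice carrying the transplanted tumor received test compound or vehicle. Survival was recorded in each group, and the value is the treated-group measurement divided by that of the vehicle-treated control group.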

[1] = dose: 25.0 mg/kg/injection, schedule: Q01DX009 (ip), vehicle: saline
[2] = dose: 50.0 mg/kg/injection, schedule: Q01DX009 (ip), vehicle: saline with Tween-80
[3] = dose: 50.0 mg/kg/injection, schedule: Q01DX009 (ip), vehicle: saline
[4] = dose: 100.0 mg/kg/injection, schedule: Q01DX009 (ip), vehicle: saline with Tween-80
[5] = dose: 100.0 mg/kg/injection, schedule: Q01DX009 (ip), vehicle: saline
[6] = dose: 200.0 mg/kg/injection, schedule: Q01DX009 (ip), vehicle: saline
[7] = dose: 60.0 mg/kg/injection, schedule: Q01DX005 (ip), vehicle: saline with Tween-80
[8] = dose: 120.0 mg/kg/injection, schedule: Q01DX005 (ip), vehicle: saline with Tween-80
[9] = dose: 240.0 mg/kg/injection, schedule: Q01DX005 (ip), vehicle: saline with Tween-80
[10] = dose: 50.0 mg/kg/injection, schedule: Q01DX005 (ip), vehicle: saline with Tween-80
[11] = dose: 100.0 mg/kg/injection, schedule: Q01DX005 (ip), vehicle: saline with Tween-80
[12] = dose: 200.0 mg/kg/injection, schedule: Q01DX005 (ip), vehicle: saline with Tween-80
[13] = dose: 100.0 mg/kg/injection, schedule: Q01DX001 (ip), vehicle: saline with Tween-80
[14] = dose: 200.0 mg/kg/injection, schedule: Q01DX001 (ip), vehicle: saline with Tween-80

Measured: T/C

O=C1NC(c2cccc3c2OCO3)N=C2Oc3ccccc3C=C12 (stereo not drawn)
inactive: [1] 107 % of control and 87 % of control | [2] 118 % of control | [3] 100 % of control and 107 % of control | [4] 120 % of control | [5] 106 % of control and 117 % of control | [6] 106 % of control and 117 % of control

C#CCSc1n[nH]c(=O)n1C1CCCCC1
inactive: [7] 99 % of control | [8] 106 % of control | [9] 106 % of control

COC(=O)c1ccc(SCC2=Nc3c(nc(N)[nH]c3=O)NCC2)cc1
inactive: dose: 12.5 mg/kg/injection, schedule: Q01DX009 (ip), vehicle: distilled water + Tween-80 99 % of control | dose: 25.0 mg/kg/injection, schedule: Q01DX009 (ip), vehicle: distilled water + Tween-80 93 % of control | dose: 50.0 mg/kg/injection, schedule: Q01DX009 (ip), vehicle: distilled water + Tween-80 90 % of control | dose: 100.0 mg/kg/injection, schedule: Q01DX009 (ip), vehicle: distilled water + Tween-80 90 % of control

CCOc1c(N=Nc2ccc(OC)cc2)c(C)nn1C(=S)S
inactive: dose: 60.0 mg/kg/injection, schedule: Q01DX005 (ip), vehicle: Klucel (hydroxypropylcellulose) (HPC) 115 % of control | dose: 120.0 mg/kg/injection, schedule: Q01DX005 (ip), vehicle: Klucel (hydroxypropylcellulose) (HPC) 112 % of control | dose: 240.0 mg/kg/injection, schedule: Q01DX005 (ip), vehicle: Klucel (hydroxypropylcellulose) (HPC) 100 % of control

CN(C)CCCOC1(Cc2ccc(F)cc2)CCCCCC1
inactive: [10] 102 % of control | [11] 102 % of control

CCN(CC)CCOCCO
inactive: [3] 100 % of control | [5] 109 % of control | [6] 100 % of control

CCC1CN2CCC1CC2C(O)c1ccnc2ccc(OC)cc12 (stereo not drawn)
inactive: [10] 100 % of control | [11] 98 % of control

Cc1cccc(C)c1NC(=O)CCC(=O)CC(=O)c1ccncc1
inactive: [7] 103 % of control | [8] 105 % of control | [9] 101 % of control

OC12CCC(c3ccccc3)(CC1)CC2
inactive: dose: 50.0 mg/kg/injection, schedule: Q01DX009 (ip), vehicle: Klucel (hydroxypropylcellulose) (HPC) 104 % of control | dose: 100.0 mg/kg/injection, schedule: Q01DX009 (ip), vehicle: Klucel (hydroxypropylcellulose) (HPC) 100 % of control | dose: 200.0 mg/kg/injection, schedule: Q01DX009 (ip), vehicle: Klucel (hydroxypropylcellulose) (HPC) 100 % of control

COC1CC(=O)C2OC(c3ccccc3)OCC2O1 (stereo not drawn)
inactive: dose: 1.56 mg/kg/injection, schedule: Q01DX009 (ip), vehicle: other 88 % of control | dose: 3.13 mg/kg/injection, schedule: Q01DX009 (ip), vehicle: other 94 % of control | dose: 6.25 mg/kg/injection, schedule: Q01DX009 (ip), vehicle: other 106 % of control | dose: 12.5 mg/kg/injection, schedule: Q01DX009 (ip), vehicle: other 96 % of control | dose: 25.0 mg/kg/injection, schedule: Q01DX009 (ip), vehicle: other 100 % of control and 97 % of control | dose: 50.0 mg/kg/injection, schedule: Q01DX009 (ip), vehicle: other 99 % of control | dose: 100.0 mg/kg/injection, schedule: Q01DX009 (ip), vehicle: other 92 % of control | dose: 200.0 mg/kg/injection, schedule: Q01DX009 (ip), vehicle: other 87 % of control | dose: 400.0 mg/kg/injection, schedule: Q01DX009 (ip), vehicle: other 98 % of control

COc1ccc2c(c1)CN(C)CO2
inactive: [10] 103 % of control | [11] 102 % of control | [12] 107 % of control

C=CCC(O)(C(F)(F)F)C(F)(F)F
inactive: [2] 105 % of control | [4] 103 % of control | dose: 200.0 mg/kg/injection, schedule: Q01DX009 (ip), vehicle: saline with Tween-80 115 % of control

[Cl][Pt+2][Cl].[NH-]c1ccc2[nH]c(=S)sc2c1.[NH-]c1ccc2[nH]c(=S)sc2c1
inactive: dose: 100.0 mg/kg/injection, schedule: Q01DX001 (sc), vehicle: olive oil, sesame oil, peanut oil 104 % of control | dose: 200.0 mg/kg/injection, schedule: Q01DX001 (sc), vehicle: olive oil, sesame oil, peanut oil 114 % of control | dose: 400.0 mg/kg/injection, schedule: Q01DX001 (sc), vehicle: olive oil, sesame oil, peanut oil 104 % of control

O=S1(=O)C=C(Cl)C1
inactive: [10] 110 % of control | [11] 96 % of control

CCCCNC(=S)NNC(=O)CNC(c1ccc(OC)cc1)C(CC)c1ccc(OC)cc1 (stereo not drawn)
inactive: [13] 88 % of control | [14] 101 % of control

O=c1cccc[nH]1
inactive: [3] 104 % of control and 112 % of control and 121 % of control | [5] 107 % of control and 109 % of control and 110 % of control | [6] 104 % of control and 105 % of control and 118 % of control | dose: 400.0 mg/kg/injection, schedule: Q01DX009 (ip), vehicle: saline 108 % of control and 96 % of control | dose: 600.0 mg/kg/injection, schedule: Q01DX009 (ip), vehicle: saline 121 % of control

CC(=O)C(=Cc1c(N(C)c2ccccc2)nn2ccccc12)C(C)=O
inactive: [13] 100 % of control | [14] 100 % of control | dose: 400.0 mg/kg/injection, schedule: Q01DX001 (ip), vehicle: saline with Tween-80 100 % of control

CN1CCC/C1=C/C(=O)c1ccc(Cl)cc1
inactive: dose: 100.0 mg/kg/injection, schedule: Q04DX003 (ip), vehicle: saline 102 % of control and 98 % of control | dose: 200.0 mg/kg/injection, schedule: Q04DX003 (ip), vehicle: saline 111 % of control and 120 % of control | dose: 400.0 mg/kg/injection, schedule: Q04DX003 (ip), vehicle: saline 92 % of control

COc1cccc(N=Nc2c(-c3ccccc3)nn(C(N)=S)c2C)c1
inactive: [10] 100 % of control | [11] 89 % of control | [12] 91 % of control

COC(=O)/C(=C/c1ccccc1)N(C(C)=O)C(C)=O
inactive: [7] 100 % of control | [8] 105 % of control | [9] 107 % of control

O=C(CCN1CCOCC1)c1ccccc1
inactive: dose: 12.5 mg/kg/injection, schedule: Q01DX009 (ip), vehicle: saline 100 % of control | [1] 101 % of control | [3] 100 % of control | [5] 104 % of control | [6] 103 % of control
